# Test results: BindingDB's records for doi:10.1021/jm9604437 (Hoechst Marion Roussel, 1996)
# Legend:
# [1] = molecular target: Dihydroorotate dehydrogenase (quinone), mitochondrial (Mus musculus, UniProt O35435); assay: Inhibitory concentration tested on enzyme dihydroorotate dehydrogenase in mouse
# [2] = molecular target: Dihydroorotate dehydrogenase (quinone), mitochondrial (Rattus norvegicus, UniProt Q63707); assay: Inhibitory concentration tested against enzyme dihydroorotate dehydrogenase in rat
# Sequence of Dihydroorotate dehydrogenase (quinone), mitochondrial (Rattus norvegicus, UniProt Q63707) (Q63707 whole entry): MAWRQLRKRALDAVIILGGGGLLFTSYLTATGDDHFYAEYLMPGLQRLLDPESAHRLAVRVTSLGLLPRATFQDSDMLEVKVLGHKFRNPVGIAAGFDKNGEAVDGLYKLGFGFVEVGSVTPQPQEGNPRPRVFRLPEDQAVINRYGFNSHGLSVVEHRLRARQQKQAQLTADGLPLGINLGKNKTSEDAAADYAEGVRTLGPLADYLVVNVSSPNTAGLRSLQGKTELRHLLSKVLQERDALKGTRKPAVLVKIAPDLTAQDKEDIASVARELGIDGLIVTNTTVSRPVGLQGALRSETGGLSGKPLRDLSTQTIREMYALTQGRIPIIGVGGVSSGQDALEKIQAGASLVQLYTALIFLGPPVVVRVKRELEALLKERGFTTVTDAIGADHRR
# Sequence of Dihydroorotate dehydrogenase (quinone), mitochondrial (Mus musculus, UniProt O35435) (O35435 whole entry): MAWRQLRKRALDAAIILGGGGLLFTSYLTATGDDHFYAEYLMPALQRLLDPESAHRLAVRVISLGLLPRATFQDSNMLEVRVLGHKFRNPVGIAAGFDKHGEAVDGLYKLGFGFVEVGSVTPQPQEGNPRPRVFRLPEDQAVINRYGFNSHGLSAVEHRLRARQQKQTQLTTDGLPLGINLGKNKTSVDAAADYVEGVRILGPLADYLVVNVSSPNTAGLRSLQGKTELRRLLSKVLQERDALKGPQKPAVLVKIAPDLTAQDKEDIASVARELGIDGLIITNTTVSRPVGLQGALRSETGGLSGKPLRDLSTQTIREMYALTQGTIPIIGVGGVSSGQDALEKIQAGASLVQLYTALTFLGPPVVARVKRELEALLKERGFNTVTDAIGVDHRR
SMILES,IC50 [1] [µM],IC50 [2] [µM]
CC=CC(=O)C(C#N)C(=O)Nc1ccc(C(F)(F)F)cc1 (centres undefined),0.063,–
"N#CC(C(=O)Nc1ccc(C(F)(F)F)cc1)C(=O)c1ccc(C(F)(F)F)cc1 (centres undefined) [2-Cyano-3-hydroxy-3,N-bis-(4-trifluoromethyl-phenyl)-acrylamide]",> 100,> 100
N#CC(C(=O)Nc1ccccc1C(F)(F)F)C(=O)C1CC1 (centres undefined) [(Z)-2-Cyano-3-cyclopropyl-3-hydroxy-N-(2-trifluoromethyl-phenyl)-acrylamide],> 100,> 100
CN1CCCC1C(=O)C(C#N)C(=O)Nc1ccc(C(F)(F)F)cc1 (centres undefined) [(Z)-2-Cyano-3-hydroxy-3-(1-methyl-pyrrolidin-2-yl)-N-(4-trifluoromethyl-phenyl)-acrylamide],> 100,> 100
N#CC(C(=O)Nc1ccc(C(F)(F)F)cc1)C(=O)C1CCCN1 (centres undefined) [(Z)-2-Cyano-3-hydroxy-3-pyrrolidin-2-yl-N-(4-trifluoromethyl-phenyl)-acrylamide],> 100,> 100
